We go through three compounds from US8691753B2 (priority 2009, dated 2014).

pKi: −log10 of the molar value. Where two headings read alike, the source gives them in different places.

In one data set the target is MMP-13h (Homo sapiens (Human), UniProt P45452). Description: Inhibition constant (Ki) on MMP-13h. In kind it is biochemical. The settings on record: human MMP-13. The essentials: (§1)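 Protocol from prior literature applied; inhibition constants measured for human enzymes only.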
The next data set has as its target MMP-2h (Homo sapiens (Human), UniProt P08253). Description: Inhibition constant (Ki) on MMP-2h. Particulars: human MMP-2. The data set is classed as biochemical. The essentials:
as §1

A further data set has as its target MMP-8h (Homo sapiens (Human), UniProt P22894). Kind of data set: Inhibition constant (Ki) on MMP-8h. The data set is classed as biochemical. The settings on record: human MMP-8.
For a further data set, the target named is MMP-1h (Homo sapiens (Human), UniProt P03956). Description: Inhibition constant (Ki) on MMP-1h. In kind it is biochemical. Particulars: human MMP-1. The essentials:
as §1

Data set [1] can be described thus: Stability test in mouse blood. The data set is classed as in vitro ADME. Particulars: after 24 hours in mouse blood. As for the experimental part: The loss of 50% of the starting material can be attributed to a phenomenon of nonspecific association of the compound with the wall of the eppendorf. It should be noted that this 50% loss of the compound was also observed after 24 hours for a solution at 10 nM in PBS buffer or in a solution at 1 μM of PBS (Bovine Serum Albumin).

In another data set the target is MMP-14h (Homo sapiens (Human), UniProt P50281). Description: Inhibition constant (Ki) on MMP-14h. In kind it is biochemical. The settings on record: human MMP-14. The gist of the method:
as §1

The target in a further data set is MMP-10h (Homo sapiens (Human), UniProt P09238). Description: Inhibition constant (Ki) on MMP-10h. The settings on record: human MMP-10. In kind it is biochemical.
MMP-10h, sequence (P09238 99-476): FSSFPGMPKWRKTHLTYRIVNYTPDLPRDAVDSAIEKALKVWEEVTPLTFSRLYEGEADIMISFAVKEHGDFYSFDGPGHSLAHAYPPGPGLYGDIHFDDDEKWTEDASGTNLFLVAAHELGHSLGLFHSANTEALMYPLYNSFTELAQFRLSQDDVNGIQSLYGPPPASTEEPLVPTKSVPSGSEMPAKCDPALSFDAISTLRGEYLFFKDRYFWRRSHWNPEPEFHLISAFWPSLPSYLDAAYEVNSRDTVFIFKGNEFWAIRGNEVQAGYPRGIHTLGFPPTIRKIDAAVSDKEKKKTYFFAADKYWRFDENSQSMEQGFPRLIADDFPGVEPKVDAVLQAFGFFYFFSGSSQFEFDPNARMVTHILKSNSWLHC
Another data set concerns the target MMP-3h (Homo sapiens (Human), UniProt P08254). Kind of data set: Inhibition constant (Ki) on MMP-3h. The data set is classed as biochemical. Particulars: human MMP-3. The gist of the method:
as §1

The next data set deals with MMP-7h (Homo sapiens (Human), UniProt P09237). Description: Inhibition constant (Ki) on MMP-7h. The data set is classed as biochemical. The settings on record: human MMP-7. The gist of the method:
as §1

The target in a further data set is MMP-9h (Homo sapiens (Human), UniProt P14780). Kind of data set: Inhibition constant (Ki) on MMP-9h. The data set is classed as biochemical. The settings on record: human MMP-9. The gist of the method:
as §1

Data set [2] can be described thus: Determination of the plasma concentration in mice after infusion. The settings on record: mouse, intravenous, 10 mg/kg.
Data set [3] has as its target T1, MMP-12h (Homo sapiens (Human), UniProt P39900). Description: Inhibition constant (Ki) on MMP-12h. The data set is classed as biochemical. Particulars: read-out: Ki MMP-12h; human MMP-12.
The test system of the next data set is human MMPs. Particulars: reported by Devel et al., J. Biol. Chem. 2006; cited from earlier work.
Data set [4] addresses T1, MMP-12h. Particulars: reported by Devel et al., J. Biol. Chem. 2006; read-out: inhibition constant Ki for human MMP-12; cited from earlier work.

T1 sequence (P39900 106-470): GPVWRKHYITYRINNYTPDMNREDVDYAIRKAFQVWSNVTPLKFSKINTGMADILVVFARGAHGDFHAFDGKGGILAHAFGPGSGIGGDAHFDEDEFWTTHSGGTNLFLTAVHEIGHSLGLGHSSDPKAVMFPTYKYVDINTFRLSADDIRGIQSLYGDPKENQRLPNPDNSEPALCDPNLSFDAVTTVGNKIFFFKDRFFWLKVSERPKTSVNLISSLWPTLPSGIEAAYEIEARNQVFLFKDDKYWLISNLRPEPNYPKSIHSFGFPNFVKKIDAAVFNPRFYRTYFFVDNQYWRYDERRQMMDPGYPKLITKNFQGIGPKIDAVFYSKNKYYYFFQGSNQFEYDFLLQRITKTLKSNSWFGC
MMP-3h, sequence (P08254 100-477): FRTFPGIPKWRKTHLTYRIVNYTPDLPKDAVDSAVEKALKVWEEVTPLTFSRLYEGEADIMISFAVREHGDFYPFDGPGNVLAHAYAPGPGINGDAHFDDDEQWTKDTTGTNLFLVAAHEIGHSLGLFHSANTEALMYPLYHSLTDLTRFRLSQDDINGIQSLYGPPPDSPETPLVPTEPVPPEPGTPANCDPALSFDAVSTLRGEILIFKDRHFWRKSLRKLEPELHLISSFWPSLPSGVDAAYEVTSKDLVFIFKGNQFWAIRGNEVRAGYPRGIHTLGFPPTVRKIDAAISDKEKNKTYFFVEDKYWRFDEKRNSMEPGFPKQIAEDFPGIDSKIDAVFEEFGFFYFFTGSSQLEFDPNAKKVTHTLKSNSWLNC
MMP-9h, sequence (P14780 94-707): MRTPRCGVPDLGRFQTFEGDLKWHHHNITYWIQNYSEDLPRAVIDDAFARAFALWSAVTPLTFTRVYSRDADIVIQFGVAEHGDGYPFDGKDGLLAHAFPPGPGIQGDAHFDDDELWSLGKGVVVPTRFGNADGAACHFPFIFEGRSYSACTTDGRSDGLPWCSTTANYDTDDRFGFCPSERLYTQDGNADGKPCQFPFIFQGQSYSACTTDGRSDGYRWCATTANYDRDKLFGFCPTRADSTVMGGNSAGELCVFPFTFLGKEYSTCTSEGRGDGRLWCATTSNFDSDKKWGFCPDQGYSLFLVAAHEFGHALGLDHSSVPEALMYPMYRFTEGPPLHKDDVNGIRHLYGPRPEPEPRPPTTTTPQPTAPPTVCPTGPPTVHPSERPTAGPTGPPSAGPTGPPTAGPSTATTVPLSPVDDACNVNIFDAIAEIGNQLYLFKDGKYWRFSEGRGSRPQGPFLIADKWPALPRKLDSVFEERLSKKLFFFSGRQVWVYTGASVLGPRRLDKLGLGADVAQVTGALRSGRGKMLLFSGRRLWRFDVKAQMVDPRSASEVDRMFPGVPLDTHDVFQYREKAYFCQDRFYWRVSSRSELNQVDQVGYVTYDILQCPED
MMP-2h, sequence (P08253 110-660): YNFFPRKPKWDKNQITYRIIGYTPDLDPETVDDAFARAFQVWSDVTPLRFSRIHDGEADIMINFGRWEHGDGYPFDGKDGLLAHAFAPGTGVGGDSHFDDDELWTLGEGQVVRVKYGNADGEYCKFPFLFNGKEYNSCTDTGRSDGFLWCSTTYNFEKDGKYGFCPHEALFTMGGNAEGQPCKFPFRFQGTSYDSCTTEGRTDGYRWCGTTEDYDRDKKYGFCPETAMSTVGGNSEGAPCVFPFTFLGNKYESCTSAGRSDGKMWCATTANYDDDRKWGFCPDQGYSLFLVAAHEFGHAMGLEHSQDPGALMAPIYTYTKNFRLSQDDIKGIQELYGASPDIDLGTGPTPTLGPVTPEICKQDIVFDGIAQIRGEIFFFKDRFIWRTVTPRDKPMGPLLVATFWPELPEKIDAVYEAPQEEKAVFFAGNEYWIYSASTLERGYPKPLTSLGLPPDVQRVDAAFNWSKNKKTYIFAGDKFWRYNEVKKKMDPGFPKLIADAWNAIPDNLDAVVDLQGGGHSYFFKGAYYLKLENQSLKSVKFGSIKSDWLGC
MMP-8h, sequence (P22894 101-467): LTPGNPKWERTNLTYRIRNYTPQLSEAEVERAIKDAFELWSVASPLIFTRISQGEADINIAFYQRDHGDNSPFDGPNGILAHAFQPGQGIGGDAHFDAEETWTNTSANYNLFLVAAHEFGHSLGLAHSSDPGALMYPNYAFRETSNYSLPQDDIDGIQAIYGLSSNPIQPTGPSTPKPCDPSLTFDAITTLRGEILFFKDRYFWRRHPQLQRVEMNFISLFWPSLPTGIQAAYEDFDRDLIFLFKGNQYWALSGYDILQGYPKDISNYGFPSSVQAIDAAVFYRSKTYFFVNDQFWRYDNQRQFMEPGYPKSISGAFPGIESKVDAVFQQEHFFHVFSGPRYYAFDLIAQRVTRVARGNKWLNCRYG
MMP-7h, sequence (P09237 95-267): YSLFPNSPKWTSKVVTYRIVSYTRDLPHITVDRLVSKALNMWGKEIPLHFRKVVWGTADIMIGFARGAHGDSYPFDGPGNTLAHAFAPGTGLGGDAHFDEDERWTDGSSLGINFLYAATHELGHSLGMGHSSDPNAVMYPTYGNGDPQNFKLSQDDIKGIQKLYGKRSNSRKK
MMP-1h, sequence (P03956 100-469): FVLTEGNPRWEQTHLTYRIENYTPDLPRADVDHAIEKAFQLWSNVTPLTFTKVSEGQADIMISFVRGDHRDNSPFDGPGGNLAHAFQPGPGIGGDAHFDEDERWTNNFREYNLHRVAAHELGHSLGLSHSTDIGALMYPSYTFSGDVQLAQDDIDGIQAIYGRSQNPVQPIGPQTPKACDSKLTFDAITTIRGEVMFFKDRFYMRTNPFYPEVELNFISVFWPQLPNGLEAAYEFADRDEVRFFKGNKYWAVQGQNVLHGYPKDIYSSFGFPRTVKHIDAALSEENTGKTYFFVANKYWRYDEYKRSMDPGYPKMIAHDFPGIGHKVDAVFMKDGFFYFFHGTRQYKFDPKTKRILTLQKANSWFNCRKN

Regarding `NC(=O)[C@H](CCC(=O)O)NC(=O)[C@H](CCC(=O)O)NC(=O)CCc1ccc(-c2ccccc2)cc1` [Compound 40, (S)-5-amino-4-((S)-2-(3-(biphenyl-4-yl)propanamido)-4-carboxybutanamido)-5-oxopentanoic acid], the pKi was 6.16 on MMP-13h; 6.35 on MMP-2h; 6.65 on MMP-8h; < 4.00 at MMP-1h; < 5.30 on MMP-14h; < 6.00 at MMP-10h. For the same compound, the pKi is < 5.30 at MMP-3h, < 5.00 at MMP-7h and < 6.00 at MMP-9h. Besides, the “by-product resulting from the compound” value in data set [1] (LC-MS and MS/MS) is reported as “No by-product”. Further, in data set [1] (LC-MS, initial solution 10 nM), the “amount detected in intact form” value was 50 fmol. Further, the “loss of the starting material” value in data set [1] (attributed to nonspecific association with the eppendorf wall) is 50%.
Consider `Cc1ccc(-c2ccc(CCC(=O)N[C@@H](CCC(=O)O)C(=O)N[C@@H](CCC(=O)O)C(N)=O)cc2)s1` [Compound 91, (S)-5-amino-4-((S)-4-carboxy-2-(3-(4-(5-methylthiophen-2-yl)phenyl)propanamido)butanamido)-5-oxopentanoic acid], for which the pKi at MMP-13h (read-out: Ki MMP-13h) was 6.25; on MMP-2h (read-out: Ki MMP-2h) it was 7.01; at MMP-8h (read-out: Ki MMP-8h), 7.99; on MMP-14h (read-out: Ki MMP-14h), < 6.00; at MMP-10h (read-out: Ki MMP-10h) it was 6.45; at MMP-12h [3] it was 8.74. The pKi at MMP-3h (read-out: Ki MMP-3h) was < 6.00; at MMP-9h (read-out: Ki MMP-9h), 6.62. The compound also came in with a concentration at 5 min in data set [2] of 1000 nM.
With `NC(=O)[C@H](CCC(=O)O)NC(=O)[C@H](CCC(=O)O)NC(=O)[C@H](Cc1cc(-c2ccc(-c3cccc(Cl)c3)cc2)no1)CP(=O)(O)c1ccc(Br)cc1` [RXP470, reference compound], the negative logarithm of the Ki (pKi) at MMP-13h (read-out: Ki MMP-13h) is 7.89; at MMP-2h (read-out: Ki MMP-2h) it was 7.14; at MMP-8h (read-out: Ki MMP-8h), 7.11; at MMP-14h (read-out: Ki MMP-14h), 7.10; on MMP-10h (read-out: Ki MMP-10h), 8.08; at MMP-12h [3] it was 9.70. The values for the pKi at MMP-12h [4], on MMP-3h (read-out: Ki MMP-3h) and on MMP-9h (read-out: Ki MMP-9h) were 9.40, 7.24 and 6.07, respectively. Further, the “potency toward MMPs 1, 2, 3, 7, 8, 9, 11, 13 and 14 compared with MMP-12” value in the data set on human MMPs is “two to three orders of magnitude less powerful”.

What is called pKi is the Ki on a negative log10 scale, so that one unit is a factor of ten.
